Data as given in patent US5070210A, “Novel ketenimines as intermediates for insecticides” (ICI Americas Inc., priority 1990, dated 1991).

Experiments:
Type in all cases: in vivo
[1] = system: Tobacco Budworm [Heliothis virescens (Fabricius)] eggs; assay: Tobacco budworm egg test; settings: 2-day old eggs, percent in solution
Procedure, shortened: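 Mortality of dipped eggs served as read-out, recorded after untreated controls hatched and began feeding. Treatments used acetone solutions from 0.1% downward, with eggs incubated at 78° F; LC50 is expressed as percent of compound in the solution.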

[2] = system: Housefly [Musca domestica]; assay: Housefly insecticidal test; settings: μg per 25 female flies; mortality after 48 hours
Procedure, shortened: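 LC50, as μg compound per 25 female flies, comes from dosage-mortality curves with doses from 100 μg downward. Residues were made by evaporating acetone plus 0.01% peanut oil in dishes, onto which 1-2-day-old females were caged; deaths were counted after 48 hours.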

[3] = system: Maize weevil [Sitophilus Zeamais (Motschulsky)]; assay: Maize weevil insecticidal test; settings: adult weevils, percent in solution; 48 hours
Procedure, shortened: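 LC50, in percent of compound in solution, was derived from dosage-mortality curves after 48 h at about 25 °C. Ten adult weevils per container fed on four corn seeds briefly immersed in acetone:water (50:50) solutions of up to 0.01% and dried.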

[4] = system: Cabbage Looper [Trichoplusia ni (Hubner)]; assay: Cabbage looper insecticidal test; settings: second-instar larvae, percent in solution; 3-5 days
Procedure, shortened: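 Steps: dilute compound in 50-50 acetone-water from 0.1% downward; immerse cotyledon pieces 2-3 s and dry; place in humid petri dishes with five second-instar larvae; record mortality at 3-5 days. Dosage-mortality curves yield LC50 as percent in solution.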

[5] = system: Aster Leafhopper [Macrosteles fascifrens (Stal)]; assay: Aster leafhopper insecticidal test; settings: adults/nymphs, percent in solution; 48 hours
Method: The compounds in Tables 1 and 2 above were tested for insecticidal activity using the following testing procedures. LC50 values, based on the results of these tests and calculated according to dosage-mortality curves, are expressed in Table 3.
Aster Leafhopper [Macrosteles fascifrens (Stal)]
Oat seedlings (Avena sp) were grown in a commercial potting soil in cups. When the plants were approximately 10 cm tall they were thinned to three plants per cup and dipped for 2-3 seconds in 50-50 acetone-water solutions of the test compounds. When the plants had dried, a clear plastic tube was placed over them and the bottom end pressed into the cup. Ten aster leafhopper adults/nymphs were then placed in each tube and the tops of the tubes covered with white organdy cloth. Mortality counts were made after 48 hours. Test concentrations ranged from 0.05% down to that at which 50% mortality occurred. The LC50 values are expressed below in Table 3 under the heading "LH" in terms of the percent of the test compound in the solution.

SMILES	LC50, TBW, E (TBW-E) [1]	LC50, HF [2]	LC50, MW [3]	LC50, CL [4]	LC50, LH [5]
C=C(C)C(=Nc1ccc(Cl)cc1)OCc1cccc(Oc2ccccc2)c1 [Compound 6]	0.015%	17 µg	> 0.01%	0.02%	> 0.05%
CCC(=Nc1ccc(Cl)cc1)OCc1cccc(Oc2ccccc2)c1 [Compound 11]	> 0.1%	6 µg	> 0.01%	0.025%	> 0.05%
CC(C)C(=Nc1cc(Cl)ccc1Cl)OCc1cccc(Oc2ccccc2)c1 [Compound 13]	> 0.1%	> 100 µg	> 0.01%	0.014%	> 0.05%
CC(C)C(=Nc1ccccc1Cl)OCc1cccc(Oc2ccccc2)c1 [Compound 17]	> 0.1%	75 µg	> 0.01%	0.03%	> 0.05%
N#CC(=Nc1ccc(Cl)cc1)OCc1cccc(Oc2ccccc2)c1 [Compound 21]	> 0.1%	7 µg	> 0.01%	0.02%	> 0.05%
CC(C)(C)C(=Nc1ccc(Cl)c(Cl)c1)OCc1cccc(Oc2ccccc2)c1 [Compound 25]	> 0.1%	> 100 µg	> 0.01%	0.01%	> 0.05%
FC(F)(F)C(=Nc1ccc(Cl)cc1)OCc1cccc(Oc2ccccc2)c1 [Compound 35]	0.03%	15 µg	> 0.01%	0.008%	> 0.05%
CC(C)C(=Nc1ccccc1)OCc1cccc(Oc2ccccc2)c1 [Compound 43]	0.05%	7 µg	> 0.01%	0.018%	> 0.05%
Fc1ccc(N=C(OCc2cccc(Oc3ccccc3)c2)C(F)F)cc1 [Compound 50]	> 0.05%	43 µg	> 0.01%	0.02%	> 0.05%
CC(C)C(=Nc1ccccc1C(F)(F)F)OCc1cccc(Oc2ccccc2)c1 [Compound 72]	> 0.1%	> 100 µg	> 0.01%	0.08%	> 0.05%
Cc1c(Cl)cc(N=C(OCc2cccc(Oc3ccccc3)c2)C(C)C)cc1Cl [Compound 101]	> 0.1%	81 µg	–	0.0045%	0.0008%
CCOC(=O)c1cc(N=C(OCc2cccc(Oc3ccccc3)c2)C(C)C)ccc1Cl [Compound 102]	> 0.1%	> 100 µg	–	0.075%	> 0.05%
CC(C)(Cl)C(=Nc1ccc(C#N)c(Cl)c1)OCc1cccc(Oc2ccccc2)c1 [Compound 108]	> 0.1%	44 µg	–	0.002%	> 0.01%
CCS(=O)(=O)c1ccc(N=C(OCc2cccc(Oc3ccccc3)c2)C(C)C)cc1Cl [Compound 112]	> 0.1%	> 100 µg	> 0.01%	0.025%	> 0.05%
CC(C)C(=Nc1c(F)cc(F)cc1Br)OCc1cccc(Oc2ccccc2)c1 [Compound 129]	> 0.1%	> 100 µg	–	0.005%	0.01%
CC(C)C(=Nc1ccc(Br)cc1)OCc1cccc(Oc2ccccc2)c1 [Compound 131]	> 0.1%	17 µg	–	0.0045%	0.005%
CC(C)(C)C(=Nc1ccc(Br)cc1)OCc1cccc(Oc2ccccc2)c1 [Compound 135]	> 0.1%	> 100 µg	–	0.004%	> 0.05%
CC(C)C(=Nc1ccc(I)cc1)OCc1cccc(Oc2ccccc2)c1 [Compound 137]	0.04%	18 µg	–	0.003%	0.008%
CCc1cccc(N=C(OCc2cccc(Oc3ccccc3)c2)C(C)C)c1 [Compound 154]	0.1%	25 µg	–	0.004%	> 0.05%

SMILES	LC50, TBW, E (TBW-E) [1]	LC50, HF [2]	LC50, MW [3]	LC50, CL [4]	LC50, LH [5]
CCc1ccc(N=C(OCc2cccc(Oc3ccc(F)cc3)c2)C(C)C)cc1 [Compound 159]	0.08%	25 µg	–	0.001%	0.0025%
CCc1ccc(N=C(OCc2cccc(Oc3ccccc3)c2)C(C)C)cc1 [Compound 161]	0.07%	15 µg	–	0.0014%	0.002%
CCc1cccc(N=C(OCc2cccc(Oc3ccccc3)c2)C(C)(C)C)c1 [Compound 162]	> 0.1%	> 100 µg	–	0.035%	> 0.05%
CC(C)C(=Nc1ccc2c(c1)CCC2)OCc1cccc(Oc2ccccc2)c1 [Compound 187]	> 0.1%	15 µg	–	0.0025%	0.0025%
CCCC(=Nc1ccc2c(c1)OCO2)OCc1cccc(Oc2ccccc2)c1 [Compound 188]	> 0.1%	12 µg	–	0.002%	> 0.05%
Cc1ccc(Oc2cccc(COC(=Nc3ccc(F)c(Cl)c3)C(C)C)c2)cc1 [Compound 225]	> 0.1%	> 100 µg	–	0.0025%	> 0.05%
CC(C)C(=Nc1ccc(C(C)C)cc1)OCc1cccc(Oc2ccc(F)cc2)c1 [Compound 228]	> 0.1%	> 100 µg	–	0.0025%	> 0.05%
CC(C)C(=Nc1ccc2c(c1)OC(C)(C)O2)OCc1ccc(F)c(Oc2ccccc2)c1 [Compound 242]	> 0.1%	< 100 µg	–	0.00025%	> 0.05%
CSc1ccc(Oc2cccc(COC(=Nc3ccc(F)cc3)C(C)C)c2)cc1 [Compound 257]	> 0.1%	> 100 µg	–	0.008%	> 0.05%
Fc1ccc(Oc2cccc(COC(=Nc3ccc(F)c(Cl)c3)C(F)(F)C(F)(F)F)c2)cc1 [Compound 258]	> 0.1%	> 100 µg	–	0.003%	> 0.05%
CC(C)C(=Nc1cc(F)ccc1Cl)OCc1ccc(F)c(Oc2ccc(F)cc2)c1 [Compound 303]	> 0.1%	> 100 µg	–	0.0015%	0.0005%
CC(C)C(=Nc1ccc(Cl)cc1)OC(C)c1cccc(Oc2ccccc2)c1 (stereo not drawn) [Compound 457]	> 0.05%	> 100 µg	–	0.009%	> 0.05%
CC(C)C(=Nc1ccc2c(c1)OCO2)OCc1cccc(Oc2ccc(F)cc2)n1 [Compound 465]	0.027%	8 µg	–	0.0017%	0.0025%
COCc1c(F)c(F)c(COC(=Nc2ccc(F)c(Cl)c2F)C(C)C)c(F)c1F [Compound 522]	> 0.1%	–	> 0.01%	> 0.1%	0.05%
CC(C)C(=Nc1cccc(C(F)(F)F)c1)OCc1cc(Oc2ccc(F)cc2)ccn1 [Compound 528]	> 0.1%	–	> 0.01%	0.0075%	> 0.05%
CC(C)C(=Nc1ccc(F)c(Cl)c1)OCc1cc(Oc2ccc(F)cc2)ccn1 [Compound 529]	> 0.1%	–	> 0.01%	> 0.0025%	> 0.05%
CC(C)C(=Nc1ccc(F)c(Cl)c1)OCc1cccc(Cc2ccccc2)c1 [Compound 541]	–	< 100 µg	> 0.01%	0.001%	> 0.05%
CC(C)C(=Nc1ccc(C(F)(F)F)cc1)OCc1cccc(Cc2ccccc2)c1 [Compound 543]	–	< 100 µg	> 0.01%	0.0008%	< 0.05%
